These results are taken from patent US6136992A, “2-alkoxy estradiols and derivatives thereof” (The United States of America as represented by the …, priority 1998, dated 2000).

The IC50 is the concentration at which inhibition is half-maximal. For orientation: GI50 means the concentration giving 50% growth inhibition.

Series [1] concerns tubulin. Kind of series: Inhibition of tubulin polymerization (turbidimetry at 350 nm). Type of series: biochemical, bovine. Conditions: for IC50: 26° C., 20 min, read-out: Inhibn of Tubulin Polymn IC50. The procedure: Four instruments were used, and two control reaction mixtures were present in each experiment. […] IC50 values were determined graphically. […]
Inhibition of tubulin polymerization was investigated using electrophoretically homogeneous tubulin from bovine brain.

For series [2], the target named is T1, estrogen receptor (Rattus norvegicus, UniProt P06211).
T1 construct: from tissue; host or cells: rat uterine cytosol
T1 sequence (P06211 1-600): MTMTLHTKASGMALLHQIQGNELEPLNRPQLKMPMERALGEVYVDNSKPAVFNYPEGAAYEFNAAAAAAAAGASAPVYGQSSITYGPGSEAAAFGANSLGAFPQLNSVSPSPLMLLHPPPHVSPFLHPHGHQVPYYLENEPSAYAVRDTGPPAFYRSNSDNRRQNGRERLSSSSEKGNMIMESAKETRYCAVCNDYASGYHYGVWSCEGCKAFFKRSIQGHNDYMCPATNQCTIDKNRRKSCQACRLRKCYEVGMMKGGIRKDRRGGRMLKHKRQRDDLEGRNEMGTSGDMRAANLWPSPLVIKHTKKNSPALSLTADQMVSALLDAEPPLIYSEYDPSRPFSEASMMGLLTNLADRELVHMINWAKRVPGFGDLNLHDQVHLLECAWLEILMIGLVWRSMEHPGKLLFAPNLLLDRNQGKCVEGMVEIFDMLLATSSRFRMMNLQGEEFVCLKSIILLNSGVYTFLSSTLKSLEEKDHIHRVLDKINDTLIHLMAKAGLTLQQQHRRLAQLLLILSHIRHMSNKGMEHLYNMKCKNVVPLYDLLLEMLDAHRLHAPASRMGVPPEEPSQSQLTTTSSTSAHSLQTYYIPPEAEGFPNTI
Kind of series: Estrogen binding affinity assay (comparative radiometric binding, rat uterine cytosol). Conditions: for RBA (relative binding affinity): 0° C., estradiol = 100. How it is done:
The assay of (11), (12) and (16) were conducted at 0° C. for 20 hours, while those for (1) and (2) were performed at 0° C. for 18 hours.

Series [3] has as its system solid tumors. The settings on record: cited from earlier work.
The test system of series [4] is DU-145 prostate cancer cells. Kind of series: NCI in vitro anticancer screen, DU-145 prostate cancer. It counts as cell-based. The settings on record: Homo sapiens, DU-145, read-out: cytotoxicity GI50, Prostate DU-145. The text has this: (§1) The effects of the analogs on cancer cell growth was investigated in the National Cancer Institute (NCI) Developmental Therapeutics Program's in vitro panel of approximately 55 cell lines (Grever et al., Seminars in Oncology 19:622 (1992), Alley et al., Cancer Research 48:589 (1988) and Montes et al., J. National Cancer Institute 83:757 (1991)). Representative results are listed in Table 1 for HOP-62 non-small-cell lung cancer cells, HCT-116 colon cancer cells, SF-539 central nervous system (CNS) cancer cells, UACC-62 melanoma cells, OVCAR ovarian cancer cells, SN12-C renal cancer cells, DU-145 prostate cancer cells, and MDA-MB-435 breast cancer cells.
(§2) ^a The cytotoxicity GI50 values are the concentrations

In series [5] the test system is UACC-62 melanoma cells. The series is described as follows: NCI in vitro anticancer screen, UACC-62 melanoma. It counts as cell-based. The settings on record: Homo sapiens, UACC-62, read-out: cytotoxicity GI50, Melanoma UACC-62.
Source text: as §1, §2

Series [6] deals with MDA-MB-435 breast cancer cells. The series is described as follows: NCI in vitro anticancer screen, MDA-MB-435 breast cancer. Type of series: cell-based. Conditions: Homo sapiens, MDA-MB-435, read-out: cytotoxicity GI50, Breast MDA-MB-435. The text has this: The effects of the analogs on cancer cell growth was investigated in the National Cancer Institute (NCI) Developmental Therapeutics Program's in vitro panel of approximately 55 cell lines (Grever et al., Seminars in Oncology 19:622 (1992), Alley et al., Cancer Research 48:589 (1988) and Montes et al., J. National Cancer Institute 83:757 (1991)).

The subject of series [7] is OVCAR ovarian cancer cells. Kind of series: NCI in vitro anticancer screen, OVCAR ovarian cancer. It counts as cell-based. Conditions: Homo sapiens, read-out: cytotoxicity GI50, Ovarian OVCAR.
Source text: as §1, §2

Series [8] has as its system HOP-62 non-small-cell lung cancer cells. The series is described as follows: NCI in vitro anticancer screen, HOP-62 non-small-cell lung cancer. It counts as cell-based. Conditions: Homo sapiens, HOP-62, read-out: cytotoxicity GI50, Lung HOP-62.
Source text: as §1, §2

Series [9] has as its system SF-539 central nervous system (CNS) cancer cells. The series is described as follows: NCI in vitro anticancer screen, SF-539 CNS cancer. The settings on record: Homo sapiens, read-out: cytotoxicity GI50, CNS SF-539. It counts as cell-based.
Source text: as §1, §2

The test system of series [10] is SN12-C renal cancer cells. Kind of series: NCI in vitro anticancer screen, SN12-C renal cancer. It counts as cell-based. The settings on record: Homo sapiens, SN12C, read-out: cytotoxicity GI50, Renal SN12-C.
Source text: as §1, §2

The subject of series [11] is all human cancer cell lines (approximately 55). Kind of series: NCI in vitro anticancer screen, all cell lines. Type of series: cell-based.
Source text: as §1
^b Mean graph midpoint for all human cancer cell lines (approximately

In series [12] the test system is HCT-116 colon cancer cells. Kind of series: NCI in vitro anticancer screen, HCT-116 colon cancer. It counts as cell-based. Conditions: Homo sapiens, HCT-116, read-out: cytotoxicity GI50, Colon HCT-116.
Source text: as §1, §2

[13] abbreviates: approximately 55 cell lines, read-out: MGM (mean graph midpoint for all human cancer cell lines), GI50.
Where [14] appears, read: read-out: MGM (mean graph midpoint for all human cancer cell lines), GI50.

Structures can show the parent of a compound that is named as a salt. Where two headings read alike, the source gives them in different places.

As for `COc1cc2c(cc1O)CC[C@@H]1[C@@H]2CC[C@]2(C)[C@@H](O)CC[C@@H]12` [Compound 1, 2-methoxy estradiol, reference compound], the 50% inhibitory concentration (IC50) in series [1] stood at 2.9 µM. Further, the “RBA (relative binding affinity)” value in series [2] (18 hours) worked out at 0.245. Moreover, the “inhibition of neovascularization and growth of solid tumors in mice” value in series [3] is “potent inhibitor of neovascularization of solid tumors and inhibits their growth”. In addition, the “signs of toxicity at tumor-inhibiting doses” value in [3] (mice) is “no apparent signs of toxicity”.

`CCOc1cc2c(cc1O)CC[C@@H]1[C@@H]2CC[C@]2(C)[C@@H](O)CC[C@@H]12` [Compound 2, 2-ethoxy estra-1,3,5(10)-trien-3,17β-diol]: the IC50 in series [1] was 0.91 µM. The “inhibition of tubulin polymerization, relative activity in words” value in [1] (comparison with 2-methoxy estradiol (1) or 2-ethoxy estradiol (2)) is listed as “over three times more active than 2-methoxy estradiol (1)”.

Take `C[C@]12CC[C@@H]3c4cc(OCC(F)(F)F)c(O)cc4CC[C@H]3[C@@H]1CC[C@@H]2O` [Compound 3, 2-(2',2',2'-trifluoroethoxy)estra-3,17β-diol]: the IC50 in series [1] was found to be 1.7 µM.

Turning to `CC(=O)Oc1cc2c(cc1OCC(F)(F)F)[C@H]1CC[C@]3(C)[C@@H](OC(C)=O)CC[C@H]3[C@@H]1CC2=O` [Compound 6, 2-(2',2',2'-Trifluoroethoxy)-3,17β-Diacetyloxy-Estra-6-Oxo-1,3,5(10)-Triene], the GI50 is 15 µM in [4]; 3.33 µM in series [5]; 26.5 µM in [6]; 3.52 µM in series [7]; 8.7 µM in series [8]; 5.11 µM in series [9]. In addition, the GI50 in [10] came out at 23.5 µM; in series [11] (setting [13]), 9.77 µM; in series [12], 3.71 µM. Further, the IC50 in series [1] was 6 µM.

`CCOc1cc2c(cc1OC(C)=O)C(=O)C[C@@H]1[C@@H]2CC[C@]2(C)[C@@H](OC(C)=O)CC[C@@H]12` [Compound 7, 2-Ethoxy-3,17β-Diacetoxy-6-Oxoestra-1,3,5(10)-triene]: the 50% growth inhibitory concentration (GI50) was found to be 19.8 µM in series [4]; 17.7 µM in series [5]; 18.4 µM in series [6]; 23.7 µM in [7]; 20 µM in [8]; 22.6 µM in [9]. Besides, the results for the 50% growth inhibitory concentration (GI50) in series [10], in [11] (setting [13]) and in [12] were 19.8 µM, 19.5 µM and 21.1 µM, respectively. In addition, the IC50 in series [1] was above 40 µM.

For `CCOc1cc2c(cc1O)C(=O)C[C@@H]1[C@@H]2CC[C@]2(C)[C@@H](O)CC[C@@H]12` [Compound 10, 2-Ethoxy-6-Oxoestra-1,3,5(10)-Triene-3,17β-Diol], the GI50 in series [4] was 0.17 µM; in [5], 0.01 µM; in series [6], below 0.01 µM; in series [7], 0.63 µM; in series [8], 0.03 µM; in [9], 0.71 µM. Further, the results for the GI50 in [10], in [11] (setting [14]) and in [12] were 0.18 µM, 0.13 µM and 0.02 µM, respectively. Besides, the half-maximal inhibitory concentration (IC50) in series [1] stood at 4.8 µM.

In the case of `CCOc1cc2c(cc1O)C(=NO)C[C@@H]1[C@@H]2CC[C@]2(C)[C@@H](O)CC[C@@H]12` [Compound 11, 2-Ethoxy-6-Hydroximinoestra-1,3,5(10)-Triene-3,17β-Diol], the GI50 in [4], in series [5], in [6], in series [7], in series [8] and in series [10] was below 0.01 µM in each case. Also, the concentration for 50% growth inhibition (GI50) is below 0.01 µM in series [11] (read-out: GI50), 0.04 µM in series [11] (setting [14]) and below 0.01 µM in [12]. Also, in series [1], the IC50 turned out to be 0.62 µM. Also, the “affinity for the estrogen receptor, in words” value in series [2] was “no affinity for the estrogen receptor”. In addition, in series [2] (20 hours), the “RBA (relative binding affinity)” value is listed as below 0.001.

As for `CCOc1cc2c(cc1O)C(=NN)C[C@@H]1[C@@H]2CC[C@]2(C)[C@@H](O)CC[C@@H]12` [Compound 13, 2-Ethoxy-6-Hydrazone-estra-1,3,5(10)-Triene-3,17β-Diol], the 50% growth inhibitory concentration (GI50) in [4] stood at 17 µM; in [5], 0.88 µM; in series [6], 6.5 µM; in series [7] it was 5.43 µM; in series [8], 1.18 µM; in [9], 2.76 µM. The concentration for 50% growth inhibition (GI50) in series [10] came out at 16.8 µM; in series [11] (setting [13]), 4.17 µM; in series [12], 2.12 µM. The IC50 in series [1] turned out to be 15 µM.

For the compound `CCOc1cc2c(cc1O)[C@@H](O)C[C@@H]1[C@@H]2CC[C@]2(C)[C@@H](O)CC[C@@H]12` [Compound 14, 2-Ethoxyestra-1,3,5(10)-Triene-3,6α,17β-Triol], the GI50 in [4] was 0.71 µM; in [5] it was 0.28 µM; in series [6] it was 5.39 µM; in [7], 0.35 µM; in series [10], 0.66 µM; in series [11] (setting [13]) it was 0.83 µM. In addition, the concentration for 50% growth inhibition (GI50) in [12] is 0.35 µM. In series [1], the concentration for half-maximal inhibition (IC50) was found to be 2.5 µM.

Regarding `CCOc1cc2c(cc1O)C(=NNS(=O)(=O)c1ccc(C)cc1)C[C@@H]1[C@@H]2CC[C@]2(C)[C@@H](O)CC[C@@H]12` [Compound 15, 2-Ethoxy-6-Tosylhydrazone-Estra-1,3,5(10)-Triene-3,17β-Diol], the GI50 was 14.9 µM in series [4]; 3.18 µM in series [7]; 5.14 µM in [8]; 3.45 µM in series [9]; 12.1 µM in series [10]; 6.16 µM in series [11] (setting [13]). Moreover, the 50% growth inhibitory concentration (GI50) in series [12] stood at 6.67 µM. The concentration for half-maximal inhibition (IC50) in series [1] is above 40 µM.

For `CCOc1cc2c(cc1O)C(=NOC)C[C@@H]1[C@@H]2CC[C@]2(C)[C@@H](O)CC[C@@H]12` [Compound 16, 2-Ethoxy-6-(O-Methyl)hydroximino-Estra-1,3,5(10)-Triene-3,17β-Diol], the concentration for 50% growth inhibition (GI50) in series [4] is 0.32 µM; in series [5], below 0.01 µM; in [6], 0.02 µM; in series [7] it was below 0.01 µM; in series [8], below 0.01 µM; in series [10], 0.26 µM. The GI50 in series [11] (setting [14]) was 0.24 µM; in series [12], below 0.01 µM. The IC50 in [1] came out at 0.75 µM. Further, the “affinity for the estrogen receptor, in words” value in series [2] is recorded as “no affinity for the estrogen receptor”. Also, the “RBA (relative binding affinity)” value in series [2] (20 hours) is reported as below 0.001.

Consider `CCOc1cc2c(cc1O)CC[C@@H]1[C@@H]2CC[C@]2(C)C(N)CC[C@@H]12` (stereo partly drawn) [Compound 20, 2-Ethoxy-3-Hydroxy-17-α/β-Aminoestra-1,3,5(10)-Triene Hydrochloride], for which the concentration for 50% growth inhibition (GI50) in series [4] was 1.93 µM; in series [5] it was 3.61 µM; in series [6], 1.74 µM; in series [7] it was 1.25 µM; in [8] it was 10.9 µM; in series [9], 3.99 µM. In addition, the GI50 stood at 5.24 µM in [10], 3.31 µM in series [11] (setting [13]) and 3.15 µM in [12]. In addition, the IC50 in series [1] was above 40 µM.
